Results on one compound are retold here after patent US7662789B2, “Peptide substance restoring myocardium function” (“Access Bioscience” CJSC, priority 2004, dated 2010).

One data set concerns white mongrel male mice. Kind of data set: Acute toxicity, single intramuscular administration in mice. It is filed as in vivo. As to conditions: single i.m. 1-5 mg/kg; dose 5000 times exceeding the therapeutic one. On the procedure:
The experiment aimed at the study of acute toxicity was conducted on 66 white mongrel male mice with body weight of 20-23 g. The animals were randomly subdivided into 6 equal groups. The substance was administered once, intramuscularly, in 0.25 ml volume, in the doses of 1 mg/kg, 2 mg/kg, 3 mg/kg, 4 mg/kg and 5 mg/kg in sterile 0.9% NaCl solution. The control animals received 0.9% NaCl solution.

Data set [1] deals with rat myocardium, TMTD poisoning. Kind of data set: Toxicochemical myocardiopathy by tetramethyl thiuram disulfide (TMTD) poisoning in rats. It is filed as in vivo. As for the experimental part: The experiment was conducted on 40 white mongrel rats with body weight of 220-230 g. The animals were randomly subdivided into four groups. The intoxication of animals with tetramethyl thiuram disulfide (TMTD) industrial poison was conducted in the form of 20-day course of 5% oil TMTD solution administration in the dose of 25 mg/kg intragastrically. The tetrapeptide was administered during the last 10 days of the experiment intramuscularly in the dose of 0.05 μg per animals in sterile 0.9% NaCl solution. Upon expiry of the indicated terms both the control and experimental animals were killed by momentary decapitation. Myocardium fragments were fixed by 12% formalin solution. Paraphin slices were stained by hematoxylin-eosine, as well as by Van Gison, Brachet, with sudan III, IV. Intact animals served as the control.

The mark [2] stands for this setting: TMTD 25 mg/kg 20 days + tetrapeptide 0.05 μg per animal i.m. last 10 days.
The mark [3] stands for this setting: intact animals, 0.05 μg per animal i.m. 10 days.

SMILES strings stand for the structures. Marks after values point to notes of the source that are not given here. Where a SMILES comes first, the peptide text is derived from it.

`C[C@H](N)C(=O)N[C@@H](CCC(=O)O)C(=O)N[C@@H](CC(=O)O)C(=O)N[C@@H](CCCNC(=N)N)C(=O)O` [Tetrapeptide, L-alanyl-L-glutamyl-L-aspartyl-L-arginine] (H-AEDR-OH): in the data set with white mongrel male mice, the “Acute toxicity, toxic reactions” value is given as “does not cause toxic reactions”. In data set [1] (setting [2]), the Cardiomyocyte nuclei volume was 365.4 ± 13.8** μm^3, the Nuclear-cytoplasmatic ratio was 0.28±0.03, the Parenchyma volume was 0.83 ± 0.02** cm^3/cm^3 and the Stroma volume is listed as 0.180±0.02 cm^3/cm^3. In addition, the “Vessels volume, Vcap/Vcmc” value in data set [1] (setting [2]) was 0.07 ± 0.02 Vcap/Vcmc. Besides, in data set [1] (intact animals, versus control), the “Increase of the filling of the myocardium” value is recorded as 11% and the “Increase of the volume of cardiomyocytes' nuclei” value came out at 14%. In addition, in data set [1] (setting [3]), the Cardiomyocyte nuclei volume is reported as 386.2 ± 2.1* μm^3, the Nuclear-cytoplasmatic ratio turned out to be 0.40 ± 0.04, the Parenchyma volume came out at 0.82 ± 0.04 cm^3/cm^3 and the Stroma volume worked out at 0.159 ± 0.05 cm^3/cm^3. Besides, the “Vessels volume, Vcap/Vcmc” value in data set [1] (setting [3]) came out at 0.08 ± 0.006 Vcap/Vcmc.
